Laboratory results from article PMC4977651, “Molecular features of biguanides required for targeting of mitochondrial respiratory complex I and activation of AMP-kinase” (BMC Biology, 2016).
Several values for one entry are separate records, joined by “and”; a condition that tells them apart may be missing. Equal values may be shown once.

Legend:
143B cells = test: Rotenone-sensitive oxygen consumption rate in intact 143B cells; format: cell-based, human; settings: 143B cells, biguanide at IC50/10; for rotenone sensitive OCR after 6 hours of biguanide exposure, average: OCR normalized to OCR immediately prior to biguanide addition
Experimental: 143B (CRL-8303 from ATCC), HepG2 (85011430 from The Health Protection Agency), and MDBK (CCL-22 from ATCC) cells were grown on Dulbecco’s modified Eagle’s medium (DMEM) supplemented with 10 % fetal bovine serum (FBS, Thermo Fisher Scientific) at 37 °C in 5 % CO2. All cells were confirmed as negative for mycoplasma.
Oxygen consumption rates (OCRs) were measured using a Seahorse XF96 extracellular flux analyzer at 37 °C. For intact cell measurements, 1.4 × 10^4 143B, HepG2, or MDBK cells were plated (per well) in DMEM containing 10 % FBS into Seahorse Bioscience Inc. XF96 plates and incubated for ~12 h at 37 °C in 5 % CO2. Then, the medium was exchanged for assay buffer containing DMEM, 4.5 g L^−1 glucose, 1 mM pyruvate, 32 mM NaCl, 2 mM GlutaMAX, 15 mg L^−1 phenol red, and 20 mM HEPES (pH 7.4 at 37 °C) and the cells placed in a CO2-free incubator at 37 °C for 30 min. Basal oxygen consumption rates were established before the addition of biguanides at one-tenth of their IC50 (IC50/10), and followed for ~ 6 h before the addition of rotenone (2 μM).
(§1) Rotenone-sensitive OCRs were calculated by subtracting the rotenone-insensitive rates (determined at the end of the experiment). OCRs were normalized by dividing by the OCR recorded immediately prior to the addition of biguanide. For rate of uptake calculations, the OCRs at time points after biguanide addition were divided by the OCRs at the same time points in control experiments. Data from wells with failed port injections were excluded from the analyses. The respiratory control ratio (RCR) values (state III versus state IV respiration) were ~11 and ~6 for permeabilized MDBK and 143B cells, respectively.

[1] = test system: bovine mitochondrial membranes (complexes II-III-IV); test: Succinate:O2 oxidoreduction (complexes II-III-IV, complex II assay) by bovine mitochondrial membranes; format: biochemical, Bos taurus; settings: biguanide concentrations set to the IC50 values for NADH:O2 on bovine membranes; control = 100.00; n = 3
Experimental: Assays were performed at 32 °C in a SpectraMax 96-well plate reader. NADH:decylubiquinone oxidoreduction by complex I at 0.5 μg mL^−1 was measured in 20 mM Tris-HCl (pH 7.2), 0.15 % soy bean asolectin (Avanti Polar Lipids), and 0.15 % 3-((3-cholamidopropyl)dimethylammonium)-1-propanesulfonate (CHAPS, Merck Chemicals Ltd), with 200 μM decylubiquinone and 200 μM NADH, and monitored using ε340–380(NADH) = 4.81 mM^−1 cm^−1 [23]. Catalysis was initiated by addition of NADH and maximal rates determined by linear regression. NADH:O2 oxidoreduction by membranes was measured similarly but using 5 μg mL^−1 membranes in 10 mM Tris-HCl (pH 7.4) and 250 mM sucrose using 200 μM NADH and supplemented with 0.15 mM horse heart cytochrome c (Sigma-Aldrich Ltd.). Succinate:O2 oxidoreduction was measured using 40 μg mL^−1 membranes in 5 mM succinate in 10 mM Tris-HCl (pH 7.4) as described previously. Control experiments included NaCl (to match the ionic strength) or DMSO, as appropriate.

permeabilized 143B cells = test: ADP-stimulated rotenone-sensitive OCR in permeabilized 143B cells; format: cell-based, human; design: rotenone sensitive OCR after ADP stimulation, individual replicates / rotenone sensitive OCR after ADP stimulation, average: unit not given here; settings: for rotenone sensitive OCR after ADP stimulation, % of control, individual replicates / rotenone sensitive OCR after ADP stimulation, individual replicates: replicate 1-11
Experimental: For permeabilized cell experiments, cells were seeded into XF96 plates at 0.9–1.1 × 10^4 per well and incubated for 48 h at 37 °C in 5 % CO2. Then, the growth medium was exchanged for assay buffer containing 3 nM plasma membrane permeabilizer ‘PMP’ (Seahorse Biosciences Inc.), 10 mM glutamate, 10 mM malate, 220 mM mannitol, 70 mM sucrose, 10 mM KH2PO4, 5 mM MgCl2, 1 mM EGTA, 0.2 % fatty acid-free bovine serum albumin (BSA), and 2 mM HEPES (pH 7.4 at 37 °C). […] The biguanides were allowed to accumulate for 30 min, then respiration was […] by the addition of 4 mM ADP. Rotenone was added (2 μM) at the end of the experiment.
as §1

AMPK-α (phospho-Thr172) = test: AMPK activation, western blot of phospho-AMPK-α in MDBK cells; format: cell-based, Bos taurus; settings: for p-alpha, average normalised to control: Averages of experiments 1-3, 18 hours; for p-alpha: band intensity
Experimental: MDBK cells were seeded at 1 × 10^6 cells per 6 cm dish in DMEM containing 10 % FBS. […] After 18 h cells were harvested by a rapid lysis procedure: cells were rinsed with PBS, then lysed using ice-cold buffer containing 50 mM HEPES, 1 mM EDTA, 10 % glycerol, 50 mM NaF, 5 mM sodium pyrophosphate, 1 % Triton-X100, 1 mM dithiothreitol (DTT), and a protease inhibitor cocktail (Roche). The cell lysate was centrifuged at 14,000 × g for 20 min at 4 °C and the protein concentration of the supernatant determined by bicinchoninic acid assay. The lysate was analyzed using Novex 3–12 % bis-Tris gels run in 3-(N-morpholino)propanesulfonic acid (MOPS) buffer (20 μg of protein per lane) followed by transfer to low fluorescence polyvinylidene fluoride membranes by wet transfer. Primary rabbit antibodies for AMPK-β (57C12), AMPK-α (phospho-Thr172) (40H9), and acetyl-coA carboxylase (phospho-Ser79) (Cell Signaling Technology) were incubated overnight with the membrane (1:1000 dilution) in Odyssey blocking buffer at 4 °C. A fluorescent secondary antibody was used (IRDYE800CW from LI-COR Biosciences, 1:20,000 dilution) with a LI-COR Odyssey imaging system.

[2] = 143B permeabilised cells, average of replicates

`[H]/N=C(/N)N/C(=N/[H])NCCc1ccccc1` [phenformin, reference compound] was tested, and the “rotenone sensitive OCR after 6 hours of biguanide exposure, % control, average” value (143B cells) was 9.47 % control, the “rotenone sensitive OCR after 6 hours of biguanide exposure, average” value (143B cells) was 11.10 and the “Complex II assay (succinate:O2 oxidoreduction), average” value [1] was 95.51. For the same compound, the “rotenone sensitive OCR after ADP stimulation, % of control, individual replicates” value (permeabilized 143B cells; 143B permeabilised cells) was 10.68 % of control and 13.07 % of control and 7.19 % of control and 19.54 % of control and 11.54 % of control and 11.56 % of control and 7.70 % of control and 13.62 % of control and 4.19 % of control and 11.40 % of control and 4.31 % of control, the “rotenone sensitive OCR after ADP stimulation, individual replicates” value (permeabilized 143B cells; 143B permeabilised cells) was 25.49 and 31.21 and 17.16 and 46.64 and 27.56 and 27.59 and 18.38 and 32.52 and 10.00 and 27.22 and 10.30 and the “AMPK activation (in words)” value (AMPK-α (phospho-Thr172); 18-h treatment, IC50/10 biguanide concentrations) was “slightly lower activation”. The “p-alpha, average normalised to control” value (AMPK-α (phospho-Thr172)) was 3.64, the “p-alpha / AMPK beta” value (AMPK-α (phospho-Thr172); Experiment 1, 18 hours) was 0.44 and the “p-alpha / AMPK beta normalised to control” value (AMPK-α (phospho-Thr172); Experiment 1, 18 hours) was 3.54. For the same compound, the p-alpha (AMPK-α (phospho-Thr172); Experiment 1, 18 hours) was 203, the “p-alpha / AMPK beta” value (AMPK-α (phospho-Thr172); Experiment 2, 18 hours) was 0.63 and the “p-alpha / AMPK beta normalised to control” value (AMPK-α (phospho-Thr172); Experiment 2, 18 hours) was 4.29. The p-alpha (AMPK-α (phospho-Thr172); Experiment 2, 18 hours) was 234, the “p-alpha / AMPK beta” value (AMPK-α (phospho-Thr172); Experiment 3, 18 hours) was 0.64 and the “p-alpha / AMPK beta normalised to control” value (AMPK-α (phospho-Thr172); Experiment 3, 18 hours) was 3.08. It also gave a p-alpha (AMPK-α (phospho-Thr172); Experiment 3, 18 hours) of 154.
For `[H]/N=C(\N/C(=N/[H])Nc1ccc(Cl)cc1)NC(C)C` [proguanil, reference compound], the “rotenone sensitive OCR after 6 hours of biguanide exposure, % control, average” value (143B cells) was 94.32 % control, the “rotenone sensitive OCR after 6 hours of biguanide exposure, average” value (143B cells) was 110.56 and the “Complex II assay (succinate:O2 oxidoreduction), average” value [1] was 95.35. The “rotenone sensitive OCR after ADP stimulation, % of control, average” value (permeabilized 143B cells; [2]) was 106.21 % of control, the “rotenone sensitive OCR after ADP stimulation, average” value (permeabilized 143B cells; [2]) was 253.55 and the “rotenone sensitive OCR after ADP stimulation, % of control, individual replicates” value (permeabilized 143B cells; 143B permeabilised cells) was 79.43 % of control and 103.02 % of control and 144.04 % of control and 93.57 % of control and 102.53 % of control and 101.42 % of control and 111.43 % of control and 105.36 % of control and 115.13 % of control. For the same compound, the “rotenone sensitive OCR after ADP stimulation, individual replicates” value (permeabilized 143B cells; 143B permeabilised cells) was 189.61 and 245.92 and 343.85 and 223.38 and 244.75 and 242.11 and 266.00 and 251.51 and 274.84, the “inhibition of the OCR (in words)” value (permeabilized 143B cells; permeabilized 143B cells, biguanide concentration equal to IC50) was “only limited inhibition” and the “p-alpha, average normalised to control” value (AMPK-α (phospho-Thr172)) was 1.33. For the same compound, the “p-alpha / AMPK beta” value (AMPK-α (phospho-Thr172); Experiment 1, 18 hours) was 0.15, the “p-alpha / AMPK beta normalised to control” value (AMPK-α (phospho-Thr172); Experiment 1, 18 hours) was 1.20 and the p-alpha (AMPK-α (phospho-Thr172); Experiment 1, 18 hours) was 71.3. For the same compound, the “p-alpha / AMPK beta” value (AMPK-α (phospho-Thr172); Experiment 2, 18 hours) was 0.19, the “p-alpha / AMPK beta normalised to control” value (AMPK-α (phospho-Thr172); Experiment 2, 18 hours) was 1.32 and the p-alpha (AMPK-α (phospho-Thr172); Experiment 2, 18 hours) was 68.2. For the same compound, the “p-alpha / AMPK beta” value (AMPK-α (phospho-Thr172); Experiment 3, 18 hours) was 0.30, the “p-alpha / AMPK beta normalised to control” value (AMPK-α (phospho-Thr172); Experiment 3, 18 hours) was 1.47 and the p-alpha (AMPK-α (phospho-Thr172); Experiment 3, 18 hours) was 59.7.
